Laboratory results from publication PMC3380826 (2012).

Columns and labels:
[1] = system: Hum24; d(T2AG3)4 (DNA, G4) TTAGGGTTAGGGTTAGGGTTAGGG; assay: CD melting at 295 nm; details: 10 mM Tris-HCl, 0.1 mM EDTA, pH 7.4, pre-formed G4, 2 µM strand
[2] = system: Hum48; d(T2AG3)8 (DNA, G4) TTAGGGTTAGGGTTAGGGTTAGGGTTAGGGTTAGGGTTAGGGTTAGGG; assay: CD melting at 295 nm; details: 10 mM Tris-HCl, 0.1 mM EDTA, pH 7.4, pre-formed G4, 2 µM strand

ΔTm ([1]; 100 mM K+, ligand:DNA 20) [°C] | ΔTm ([2]; 100 mM K+, ligand:DNA 20) [°C] | ΔTm ([1]; 100 mM K+, ligand:DNA 10) [°C] | ΔTm ([1]; 100 mM Na+, ligand:DNA 10) [°C] | ΔTm ([2]; 100 mM K+, ligand:DNA 10) [°C] | ΔTm ([2]; 100 mM Na+, ligand:DNA 10) [°C] | Compound
5 | 9 | – | – | – | – | CCOc1cc(-c2nc3ccc(N4CCN(CCO)CC4)cc3[nH]2)cc(-c2nc3ccc(N4CCN(CCO)CC4)cc3[nH]2)c1
– | – | 22 | 11 | 21 | 13 | OCCN1CCN(c2ccc3[nH]c(-c4cc(OCCOCCOCCOCCOCCOCCOc5cc(-c6nc7cc(N8CCN(CCO)CC8)ccc7[nH]6)cc(-c6nc7cc(N8CCN(CCO)CC8)ccc7[nH]6)c5)cc(-c5nc6cc(N7CCN(CCO)CC7)ccc6[nH]5)c4)nc3c2)CC1
– | – | 12 | – | 18 | – | OCCN1CCN(c2ccc3[nH]c(-c4cc(OCCOCCOCCOCCOCCOc5cc(-c6nc7cc(N8CCN(CCO)CC8)ccc7[nH]6)cc(-c6nc7cc(N8CCN(CCO)CC8)ccc7[nH]6)c5)cc(-c5nc6cc(N7CCN(CCO)CC7)ccc6[nH]5)c4)nc3c2)CC1
– | – | 16 | – | 16 | – | OCCN1CCN(c2ccc3[nH]c(-c4cc(OCCOCCOCCOCCOc5cc(-c6nc7cc(N8CCN(CCO)CC8)ccc7[nH]6)cc(-c6nc7cc(N8CCN(CCO)CC8)ccc7[nH]6)c5)cc(-c5nc6cc(N7CCN(CCO)CC7)ccc6[nH]5)c4)nc3c2)CC1
